Reference: ChEMBL document CHEMBL1201862, “PubChem BioAssay data set” (2004)
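96-well plates; 48 h exposure; 5 concentrations. Endpoints by linear interpolation between flanking doses. Not reached: highest tested concentration assigned. Abbreviation: GI50, concentration required for 50% inhibition of growth.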 Calls of active or inactive are those of the source. Cut-off read from the data, not from the text of the source: active = GI50 up to about 1.1 µM and inactive = higher.

Legend:
Assay in all cases: NCI tumour cell line growth inhibition, 48 h
A549 = tested on: A549
ACHN = tested on: ACHN
CAKI-1 = tested on: CAKI-1
CCRF-CEM = tested on: CCRF-CEM
COLO 205 = tested on: COLO 205
DMS-114 = tested on: DMS-114
DMS-273 = tested on: DMS-273
EKVX = tested on: EKVX
HCC 2998 = tested on: HCC 2998
HCT-116 = tested on: HCT-116
HCT-15 = tested on: HCT-15
HL-60 = tested on: HL-60
HOP-62 = tested on: HOP-62
HOP-92 = tested on: HOP-92
HT-29 = tested on: HT-29
IGROV-1 = tested on: IGROV-1
K562 = tested on: K562
KM-20L2 = tested on: KM-20L2
KM12 = tested on: KM12
LOX IMVI = tested on: LOX IMVI
M14 = tested on: M14
M19-MEL = tested on: M19-MEL
MOLT-4 = tested on: MOLT-4
Malme-3M = tested on: Malme-3M
NCI-H226 = tested on: NCI-H226
NCI-H460 = tested on: NCI-H460
NCI-H522 = tested on: NCI-H522
OVCAR-3 = tested on: OVCAR-3
OVCAR-4 = tested on: OVCAR-4
OVCAR-5 = tested on: OVCAR-5
OVCAR-8 = tested on: OVCAR-8
RPMI-8226 = tested on: RPMI-8226
RXF 393 = tested on: RXF 393
SF-268 = tested on: SF-268
SF-295 = tested on: SF-295
SF-539 = tested on: SF-539
SK-MEL-28 = tested on: SK-MEL-28
SK-MEL-2 = tested on: SK-MEL-2
SK-OV-3 = tested on: SK-OV-3
SN12C = tested on: SN12C
SNB-19 = tested on: SNB-19
SR = tested on: SR
SW-620 = tested on: SW-620
TK-10 = tested on: TK-10
UACC-62 = tested on: UACC-62
UO-31 = tested on: UO-31
XF498 = tested on: XF498
786-0 = tested on: 786-0
A498 = tested on: A498
DLD-1 = tested on: DLD-1
HOP-18 = tested on: HOP-18
LXFL 529 = tested on: LXFL 529
NCI-H23 = tested on: NCI-H23
SK-MEL-5 = tested on: SK-MEL-5
SNB-75 = tested on: SNB-75
SNB-78 = tested on: SNB-78
U-251 = tested on: U-251
UACC-257 = tested on: UACC-257

With `O=c1sc2ccccc2n1CC1CS1` (centres undefined) the GI50 (A549) was > 100 µM (inactive), the GI50 (ACHN) was > 100 µM (inactive) and the GI50 (CAKI-1) was > 100 µM (inactive). For the same molecule, the GI50 (CCRF-CEM) was > 100 µM (inactive), the GI50 (COLO 205) was > 100 µM (inactive) and the GI50 (DMS-114) was > 100 µM (inactive). The GI50 (DMS-273) was > 100 µM (inactive), the GI50 (EKVX) was > 100 µM (inactive) and the GI50 (HCC 2998) was > 100 µM (inactive). The GI50 (HCT-116) was > 100 µM (inactive), the GI50 (HCT-15) was > 100 µM and the GI50 (HL-60) was > 100 µM (inactive). The GI50 (HOP-62) was > 100 µM (inactive), the GI50 (HOP-92) was > 100 µM (inactive) and the GI50 (HT-29) was > 100 µM (inactive). The GI50 (IGROV-1) was > 100 µM (inactive), the GI50 (K562) was > 100 µM (inactive) and the GI50 (KM-20L2) was > 100 µM (inactive). For the same molecule, the GI50 (KM12) was > 100 µM (inactive), the GI50 (LOX IMVI) was > 100 µM (inactive) and the GI50 (M14) was > 100 µM (inactive). The GI50 (M19-MEL) was > 100 µM (inactive), the GI50 (MOLT-4) was > 100 µM (inactive) and the GI50 (Malme-3M) was > 100 µM (inactive). For the same molecule, the GI50 (NCI-H226) was > 100 µM (inactive), the GI50 (NCI-H460) was > 100 µM (inactive) and the GI50 (NCI-H522) was > 100 µM (inactive). For the same molecule, the GI50 (OVCAR-3) was > 100 µM (inactive), the GI50 (OVCAR-4) was > 100 µM (inactive) and the GI50 (OVCAR-5) was > 100 µM (inactive). For the same molecule, the GI50 (OVCAR-8) was > 100 µM (inactive), the GI50 (RPMI-8226) was > 100 µM (inactive) and the GI50 (RXF 393) was > 100 µM (inactive). The GI50 (SF-268) was > 100 µM (inactive), the GI50 (SF-295) was > 100 µM (inactive) and the GI50 (SF-539) was > 100 µM (inactive). The GI50 (SK-MEL-28) was > 100 µM (inactive), the GI50 (SK-MEL-2) was > 100 µM (inactive) and the GI50 (SK-OV-3) was > 100 µM (inactive). For the same molecule, the GI50 (SN12C) was > 100 µM (inactive), the GI50 (SNB-19) was > 100 µM (inactive) and the GI50 (SR) was > 100 µM (inactive). The GI50 (SW-620) was > 100 µM (inactive), the GI50 (TK-10) was > 100 µM (inactive) and the GI50 (UACC-62) was > 100 µM (inactive). For the same molecule, the GI50 (UO-31) was > 100 µM (inactive) and the GI50 (XF498) was > 100 µM (inactive).

With `CCO/C([O-])=C(\C(=O)c1ccc([N+](=O)[O-])cc1)[n+]1c(C)n(C)c2ccccc21` the GI50 (786-0) was > 100 µM (inactive), the GI50 (A498) was > 100 µM (inactive) and the GI50 (A549) was > 100 µM (inactive). For the same molecule, the GI50 (CAKI-1) was > 100 µM (inactive), the GI50 (CCRF-CEM) was > 100 µM (inactive) and the GI50 (COLO 205) was > 100 µM (inactive). The GI50 (DLD-1) was > 100 µM (inactive), the GI50 (DMS-114) was > 100 µM (inactive) and the GI50 (DMS-273) was > 100 µM (inactive). The GI50 (EKVX) was > 100 µM (inactive), the GI50 (HCC 2998) was > 100 µM (inactive) and the GI50 (HCT-116) was > 100 µM (inactive). For the same molecule, the GI50 (HL-60) was > 100 µM (inactive), the GI50 (HOP-18) was > 100 µM (inactive) and the GI50 (HOP-62) was > 100 µM (inactive). For the same molecule, the GI50 (HT-29) was > 100 µM (inactive), the GI50 (IGROV-1) was > 100 µM (inactive) and the GI50 (K562) was > 100 µM (inactive). For the same molecule, the GI50 (KM-20L2) was > 100 µM (inactive), the GI50 (KM12) was > 100 µM (inactive) and the GI50 (LOX IMVI) was > 100 µM (inactive). For the same molecule, the GI50 (LXFL 529) was > 100 µM (inactive), the GI50 (M14) was > 100 µM (inactive) and the GI50 (M19-MEL) was > 100 µM (inactive). For the same molecule, the GI50 (MOLT-4) was > 100 µM (inactive), the GI50 (Malme-3M) was > 100 µM (inactive) and the GI50 (NCI-H226) was > 100 µM (inactive). For the same molecule, the GI50 (NCI-H23) was > 100 µM (inactive), the GI50 (NCI-H460) was > 100 µM (inactive) and the GI50 (NCI-H522) was > 100 µM (inactive). The GI50 (OVCAR-3) was > 100 µM (inactive), the GI50 (OVCAR-4) was > 100 µM (inactive) and the GI50 (OVCAR-5) was > 100 µM (inactive). The GI50 (OVCAR-8) was > 100 µM (inactive), the GI50 (RPMI-8226) was > 100 µM (inactive) and the GI50 (RXF 393) was > 100 µM (inactive). The GI50 (SF-268) was > 100 µM (inactive), the GI50 (SF-295) was > 100 µM (inactive) and the GI50 (SF-539) was > 100 µM (inactive). For the same molecule, the GI50 (SK-MEL-28) was > 100 µM (inactive), the GI50 (SK-MEL-2) was > 100 µM (inactive) and the GI50 (SK-MEL-5) was > 100 µM (inactive). The GI50 (SK-OV-3) was > 100 µM (inactive), the GI50 (SNB-19) was > 100 µM (inactive) and the GI50 (SNB-75) was > 100 µM (inactive). The GI50 (SNB-78) was > 100 µM (inactive), the GI50 (SW-620) was > 100 µM (inactive) and the GI50 (TK-10) was > 100 µM (inactive). For the same molecule, the GI50 (U-251) was > 100 µM (inactive), the GI50 (UACC-257) was > 100 µM (inactive) and the GI50 (UACC-62) was > 100 µM (inactive). The GI50 (UO-31) was > 100 µM (inactive).
